# Measured values reported in patent US6387647B1 (priority 1993, dated 2002).
# Columns and labels:
# [1] = tested on: Saccharomyces cerevisiae strain DCX45(pML82)-1B (disrupted cytochrome P450 reductase gene) versus strain STX429-2A (erg6); type: cell-based; details: 20 μg per disk; YEPD agar, 30° C., two days; differential of approximately 8 mm or more scored as active
# Protocol: Liquid yeast extract, peptone and dextrose (YEPD) media is first prepared by mixing the following ingredients obtained from Difco
# and autoclaving at 20 lbs for 15 min. Solidified YEPD media is prepared using the above ingredients, except that
# (§1) Overnight cultures of S. cerevisiae strain DCX45-(pML82)-1B from Example 1 above and strain STX429-2A obtained from the Yeast Genetics Stock Center are grown in liquid YEPD media shaken at 30° C. to an OD600 of ˜5 or greater.
# (§2) Test media are prepared by combining separately 0.5 parts STX429-2A inoculum to 100 parts of warm YEPD agar media and 2 parts of DCX45(pML82)-1B to 100 parts of warm YEPD agar media. Plates for each culture are poured. Test samples are prepared on disks in duplicate, and each is placed on a STX429-2A plate and a DCX45(pML82)-1B plate, testing 20 μg of test sample per disk. A ¼″ disk containing 10 μg of dinaconazole is used as a positive control on each plate.
# (§3) The plates are incubated at 30° C. for two days and then examined to compare activity on the two strains. Actives produce a larger zone on the DCX45(pML82)-1B plate than on the STX429-2A plate. Only compounds producing a differential of approximately 8 mm or more are scored as active.
# STX429-2A (erg 6) = details: strain STX429-2A (erg 6)
# Protocol: as §2
# The plates are incubated at 30° C. for two days and then examined to compare activity on the two strains. Actives produce a larger zone on the DCX45(pML82)-1B plate than on the STX429-2A plate.
# DCX45 (pML82)-1B = assay: imidazole sensitivity (limit of detection) on cytochrome P450 reductase disrupted strain; type: cell-based, Saccharomyces cerevisiae
# Protocol: as §1, §2, §3
# The imidazole sensitivity of these compounds in the strains is as follows: […]
# [2] = tested on: DCX45(pML82)-1B (disrupted cytochrome P450 reductase gene); assay: disk sensitivity on YEPD of LEU+ spores / strain DCX45(pML82)-1B (Example 1); details: for sensitivity of LEU+ cultures compared with leu− cultures: spores plated on YEPD, disks containing the inhibitors
# erg6 mutants = details: cited from earlier work
# [3] = tested on: cytochrome P450 reductase yeast mutants (TSY11-6C, TSY21); details: cited from earlier work
Molecule,activity in the cytochrome P450 reductase screen (larger zone on the DCX45(pML82)-1B plate than on the STX429-2A plate) [1],Limit of Detection (DCX45 (pML82)-1B),sensitivity of LEU+ cultures compared with leu− cultures [2],other results
Clc1ccc(COC(Cn2ccnc2)c2ccc(Cl)cc2Cl)c(Cl)c1 (centres unmarked) [miconazole],active,,,
Clc1ccc(COC(Cn2ccnc2)c2ccc(Cl)cc2Cl)cc1 (centres unmarked) [econazole],active,2 ng,more sensitive,Limit of Detection (STX429-2A (erg 6)): 50 ng
C[C@@H]1C[C@@H]([C@H](O)CC2CC(=O)NC(=O)C2)C(=O)[C@@H](C)C1 [cycloheximide],,,,sensitivity or resistance of erg6 mutant strains (erg6 mutants): hypersensitivity
C/C=C/C/C=C/CCC(=O)[C@H]1O[C@H]1C(N)=O [cerulenin],,,,sensitivity of strain DCX45(pML82)-1B [2]: increased sensitivity
CC(C)(C)C(O)/C(=C/c1ccc(Cl)cc1Cl)n1cncn1 (centres unmarked) [dinaconazole],active,2 ng,more sensitive,Limit of Detection (STX429-2A (erg 6)): 50 ng
mevinolin [lactonized mevinolin],no response,,,
CC(=O)N1CCN(c2ccc(OCC3COC(Cn4ccnc4)(c4ccc(Cl)cc4Cl)O3)cc2)CC1 (centres unmarked) [ketoconazole],active,5 ng,more sensitive,sensitivity of strains TSY11-6C and TSY21 ([3]; disrupted cytochrome P450 reductase genes): sensitive; increase in sensitivity of cytochrome P450 reductase yeast mutants ([3]; mutants lacking the cytochrome P450 reductase gene): 200 fold; sensitivity of strain DCX45(pML82)-1B [2]: supersensitivity
CN1C(=O)[C@]23CC4=CC=C[C@H](O)[C@H]4N2C(=O)[C@@]1(CO)SS3 [gliotoxin],positive,,,
C[C@@H]1[C@H](O)[C@@H](C)/C=C/C=C/CC/C=C/C=C/C=C/C=C/C(O[C@H]2O[C@H](C)[C@@H](O)[C@H](N)[C@@H]2O)CC2O[C@](O)(CC(O)C(O)CCC(O)CC(O)CC(O)CC(=O)O[C@H]1C)CC(O)C2C(=O)O (some centres unmarked) [nystatin],,,,sensitivity or resistance of erg6 mutant strains (erg6 mutants): resistance
